Assay results: patent publication US20050288347A1, “Certain triazole-based compounds, compositions, and uses thereof” (priority 2004, published 2005)
Entries after “also recorded” stand apart in the source; their conditions may differ.

Test system: protein kinase
Assay: HTS ATP-utilizing enzyme assay, off-chip mobility-shift format (Caliper HTS 250)
Type: biochemical, human
Conditions: test compound 10 μM; for protein kinase against which the compound exhibits inhibitory activity (Table 3): active = activity greater than three-sigma from the mean of the predominately inactive population for that enzyme; for Kinase: kinase(s) for which the compound exhibits protein kinase inhibitory activity, active = greater than three-sigma from the mean activity of inactive compounds
Method in brief: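 Kinase reactions ran 2.5 h at 20 to 22 °C with test compound at 10 μM, in a HEPES pH 7.5 master buffer containing Triton X-100 and BSA. Peptide substrate and phosphorylated product separated by mobility shift; inhibition normalized to DMSO (0%) and EDTA (100%) controls, with three-sigma thresholds for hits.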

protein kinase against which the compound exhibits inhibitory activity (Table 3)	Kinase	Structure (SMILES)
AURORA-A; also recorded: GSK3-β		CCOCCSc1nnc(-c2ccc(OC(F)(F)F)cc2)[nH]1 [3-(2-ethoxyethylthio)-5-(4-(trifluoromethoxy)phenyl)-4H-1,2,4-triazole]
	AURORA-A	COc1ccc(OCc2nnc(SCC(=O)O)n2-c2ccc(C)cc2)cc1
	AURORA-A	COc1ccccc1-n1c(S)nnc1-c1cccnc1 [4-(2-methoxyphenyl)-5-(pyridin-3-yl)-4H-1,2,4-triazole-3-thiol]
	LCK	Sc1nnc(-c2ccncc2)n1-c1ccccc1 [4-phenyl-5-(pyridin-4-yl)-4H-1,2,4-triazole-3-thiol]
	FYN	CCOC(=O)CSc1nnc(-c2cc3ccccc3cc2O)n1C
CSK and LCK		COc1cc(CSc2nnc[nH]2)c(OC)cc1CSc1nnc[nH]1
CHEK2		FC(F)(F)c1cccc(-c2nnc(SCc3cccc(I)c3)[nH]2)c1 [3-(3-iodobenzylthio)-5-(3-(trifluoromethyl)phenyl)-4H-1,2,4-triazole]
DAPK1		CCN(CC)S(=O)(=O)c1ccc(-c2nnc(SCC(=O)N3c4ccccc4CCc4ccccc43)n2CC)cc1
	PDGFRR-α and FYN	COc1ccc(NCc2nnc(SCC(=O)O)n2-c2ccc(OC)cc2)cc1
	CSK	CCOC(=O)CSc1nnc(CSc2nc3ccccc3s2)n1C
	AURORA-A	Cn1c(CNc2cccc(Cl)c2)nnc1SCC#N
c-TAK1		COc1ccccc1-n1c(SCCCC(=O)O)nnc1-c1ccccc1 [4-(4-(2-methoxyphenyl)-5-phenyl-4H-1,2,4-triazol-3-ylthio)butanoic acid]
AKT1		COc1ccc(-n2c(CNc3ccc(F)cc3)nnc2SC)cc1
	FLT-3; also recorded: AURORA-A	Cc1cccc(-c2nnc(SCC(=O)c3ccccc3)[nH]2)c1 [1-phenyl-2-(5-m-tolyl-4H-1,2,4-triazol-3-ylthio)ethanone]
	CDK2-cyclinE	O=C(CSc1nnc(Cc2ccccc2)n1Cc1ccccc1)Nc1ccccc1-c1ccccc1 [N-(biphenyl-2-yl)-2-(4,5-dibenzyl-4H-1,2,4-triazol-3-ylthio)acetamide]
	FYN	CC(Sc1nnc(COc2ccccc2)n1-c1ccccc1)C(=O)O (stereo not shown) [2-(5-(phenoxymethyl)-4-phenyl-4H-1,2,4-triazol-3-ylthio)propanoic acid]
	AURORA-A and FYN	Cn1c(SCC(=O)c2ccc3c(c2)OCCO3)nnc1C1CC1
	GSK3-α	O=C(CSc1nnc[nH]1)c1ccc(O)cc1O [2-(4H-1,2,4-triazol-3-ylthio)-1-(2,4-dihydroxyphenyl)ethanone]
GSK3-β; also recorded: GSK3-α		CCSc1nnc(-c2ccc(O)cc2)n1Cc1ccccc1 [4-(4-benzyl-5-(ethylthio)-4H-1,2,4-triazol-3-yl)phenol]
	GSK3-β	COc1ccccc1-n1c(SCC(=O)O)nnc1C1CCCCC1 [2-(5-cyclohexyl-4-(2-methoxyphenyl)-4H-1,2,4-triazol-3-ylthio)acetic acid]
	AKT1	COc1ccc(-n2c(SC(C)C(=O)Nc3c(C)cccc3C)nnc2-c2ccc(O)cc2)cc1 (stereo not shown)
	FYN( and PDGFRR-α	COc1ccc(NCc2nnc(SC(C)C(=O)O)n2-c2ccccc2)cc1 (stereo not shown)
	PAK2 and GSK3-α	Cc1ccc(NCc2nnc(S)n2-c2ccc(Cl)cc2)cc1 [5-((p-toluidino)methyl)-4-(4-chlorophenyl)-4H-1,2,4-triazole-3-thiol]
	GSK3-β; also recorded: GSK3-α	Cc1cc(NC(=O)CSc2nnc(-c3ccc(O)cc3)n2C)no1

protein kinase against which the compound exhibits inhibitory activity (Table 3)	Kinase	Structure (SMILES)
GSK3-β; also recorded: GSK3-α		Cc1nnc(SCc2ccccc2)n1Cc1ccccc1 [4-benzyl-3-(benzylthio)-5-methyl-4H-1,2,4-triazole]
	DAPK1	Cc1ccc(NCc2nnc(SCC(=O)N3c4ccccc4Sc4ccccc43)n2C)cc1
MSK1 and MSK2 and AKT3		Clc1ccc(CSc2nnc(-c3ccncc3)n2Cc2ccco2)cc1
	GSK3-α	Cn1c(Cn2nnc3ccccc32)nnc1SCC(=O)Nc1cccc(O)c1
	GSK3-β; also recorded: MAPKAPK-2	COc1ccc(-n2c(SC(C)C(=O)O)nnc2-c2ccc(O)cc2)cc1 (stereo not shown)
	MAPKAPK-2	NC(=O)CSc1nnc(COc2cccc3cccnc23)n1-c1ccccc1
AURORA-A		OC(CSc1nnc(-c2cccnc2)[nH]1)C(F)(F)F (stereo not shown) [1,1,1-trifluoro-3-(5-(pyridin-3-yl)-4H-1,2,4-triazol-3-ylthio)propan-2-ol]
SYK and INSR and PRAK		COCCSc1nnc(-c2ccc(OC)cc2)n1-c1ccccc1 [3-(2-methoxyethylthio)-5-(4-methoxyphenyl)-4-phenyl-4H-1,2,4-triazole]
	MSK2	COc1ccc(-c2nnc(S)n2Cc2ccco2)cc1OC [5-(3,4-dimethoxyphenyl)-4-(furan-2-ylmethyl)-4H-1,2,4-triazole-3-thiol]
	AKT1	CC(=O)c1ccc(NC(=O)CSc2nnc(C)n2-c2ccccc2)cc1
	SRC	CCn1c(SCC(=O)N(c2ccccc2)c2ccccc2)nnc1-c1ccc(O)cc1
AURORA-A		c1cncc(-c2nnc(SCC3CCCO3)[nH]2)c1 (stereo not shown) [3-(5-((tetrahydrofuran-2-yl)methylthio)-4H-1,2,4-triazol-3-yl)pyridine]
	CHEK2; also recorded: AURORA-A	COc1ccc(-n2c(SC(C)C(=O)O)nnc2-c2ccc(NC(=O)c3ccccc3)cc2)cc1 (stereo not shown)
	PDGFRR-α and PKA	COc1ccc(OCc2nnc(SCC(=O)Nc3ccccc3OC)n2C)cc1
AURORA-A		COc1cccc(OCc2nnc(SC)n2C)c1 [3-((3-methoxyphenoxy)methyl)-4-methyl-5-(methylthio)-4H-1,2,4-triazole]
PDGFRR-α; also recorded: AURORA-A		O=C(CSc1nnc(-c2cccnc2)n1Cc1ccccc1)NNC(=O)c1ccc(Br)cc1
GSK3-α		OCC(O)CSc1nnc(CCc2ccccc2)[nH]1 (stereo not shown)
	AURORA-A	CCn1c(COc2cccc3ccccc23)nnc1SCC#N
	AKT1	COCCn1c(SCC(=O)O)nnc1-c1cc2c(C)nn(-c3ccccc3)c2s1
	FYN	Cc1ccc(-n2c(SCC(=O)N3CCCCC3)nnc2-c2ccncc2)cc1
	AURORA-A	COc1cccc(-n2c(SCC(=O)NC(C)(C)C)nnc2-c2cccnc2)c1
	GSK3-β; also recorded: GSK3-α	CCc1nnc(NC(=O)CSc2nnc(-c3ccc(O)cc3)n2C)s1
	GSK3-β; also recorded: GSK3-α	COc1ccc(-c2nnc(S)n2-c2ccc(C)cc2)cc1 [5-(4-methoxyphenyl)-4-p-tolyl-4H-1,2,4-triazole-3-thiol]
FLT-3; also recorded: AURORA-A		Fc1ccc(CSc2nnc(-c3ccc(OC(F)(F)F)cc3)[nH]2)cc1 [3-(4-fluorobenzylthio)-5-(4-(trifluoromethoxy)phenyl)-4H-1,2,4-triazole]

Structure (SMILES)	protein kinase against which the compound exhibits inhibitory activity (Table 3)	Kinase
Cc1nnc(SCc2ccccc2)n1Cc1ccc(Cl)c(Cl)c1 [3-(benzylthio)-4-(3,4-dichlorobenzyl)-5-methyl-4H-1,2,4-triazole]	GSK3-α; also recorded: GSK3-β; also recorded: c-TAK1	
Fc1ccc(CSc2nnc(-c3cccs3)[nH]2)cc1 [3-(4-fluorobenzylthio)-5-(thiophen-2-yl)-4H-1,2,4-triazole]	AURORA-A; also recorded: FLT-3; also recorded: DYRK2	
NC(=O)CSc1nnc(-c2ccc(S(=O)(=O)N3CCCCC3)cc2)[nH]1 [2-(5-(4-(piperidin-1-ylsulfonyl)phenyl)-4H-1,2,4-triazol-3-ylthio)acetamide]		GSK3-β; also recorded: AURORA-A; also recorded: GSK3-α
c1csc(-c2nnc(SCCN3CCCC3)[nH]2)c1 [3-(2-(pyrrolidin-1-yl)ethylthio)-5-(thiophen-2-yl)-4H-1,2,4-triazole]	GSK3-α; also recorded: GSK3-β; also recorded: DYRK2	
Cc1nnc(SCC(=O)c2ccccc2)[nH]1 [2-(5-methyl-4H-1,2,4-triazol-3-ylthio)-1-phenylethanone]		GSK3-α; also recorded: GSK3-β; also recorded: DYRK2
Cc1ccc(NCc2nnc(S)n2-c2ccccc2)cc1Cl		GSK3-β; also recorded: GSK3-α; also recorded: AURORA-A
Cc1nnc(SCc2nc3ccccc3[nH]2)[nH]1 [2-((5-methyl-4H-1,2,4-triazol-3-ylthio)methyl)-1H-benzo[d]imidazole]	DYRK2; also recorded: FLT-3; also recorded: AURORA-A	
Cc1ccc(-n2c(SCC#N)nnc2-c2ccncc2)cc1 [2-(5-(pyridin-4-yl)-4-p-tolyl-4H-1,2,4-triazol-3-ylthio)acetonitrile]		AURORA-A; also recorded: GSK3-β; also recorded: GSK3-α
COC(=O)CSc1nnc(-c2ccncc2)[nH]1 [methyl 2-(5-(pyridin-4-yl)-4H-1,2,4-triazol-3-ylthio)acetate]		AURORA-A; also recorded: DYRK2; also recorded: GSK3-β
OCCSc1nnc(-c2cccs2)[nH]1 [2-(5-(thiophen-2-yl)-4H-1,2,4-triazol-3-ylthio)ethanol]	DYRK2; also recorded: FLT-3; also recorded: AURORA-A	
Cc1nnc(SCc2ccccc2C#N)[nH]1 [2-((5-methyl-4H-1,2,4-triazol-3-ylthio)methyl)benzonitrile]	AURORA-A; also recorded: GSK3-β; also recorded: GSK3-α	
O=C(CSc1nnc(-c2ccncc2)n1-c1ccc(F)cc1)Nc1nccs1		GSK3-α; also recorded: GSK3-β; also recorded: CDK2-cyclinE
COc1ccc(-n2c(S)nnc2-c2ccc(NS(=O)(=O)c3ccc(C)cc3)cc2)cc1		GSK3-β; also recorded: GSK3-α; also recorded: AURORA-A
